Measurements from patent US12649727B2, “EFGR inhibitor, preparation method therefor and application thereof” (Abbisko Therapeutics Co., Ltd, priority 2020, dated 2026).

Assays:
Type in all cases: cell-based
[1] = molecular target: Ba/F3 EGFR-D770-N771ins_SVD (Homo sapiens, UniProt P00533, DUP768-770, cells depend on it); experiment: Proliferation experiment of Ba/F3 cell line, EGFR-D770-N771ins_SVD (CellTiter-Glo); details: cultured for 72 hrs with compound, CTG analysis, read-out: Ba/F3 EGFR-D770-N771ins_SVD IC50
Method in brief: (§1)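 […] Ba/F3 cells expressing EGFR insertion mutants treated 72 h at 37 °C with 9 concentrations, 3.16-fold dilutions, top 10 μM, 0.1% DMSO, in triplicate. Viability by CellTiter-Glo luminescence with T0 reference plate; IC50 (nM) from non-linear dose-response fit.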

[2] = tested on: A431 (EGFR-WT); experiment: Proliferation experiment, A431 cell line (CellTiter-Glo); details: Homo sapiens, A-431; A431 cells, cultured for 72 hrs with compound, CTG analysis
[3] = molecular target: Ba/F3 EGFR-V769_D770insASV (Homo sapiens, UniProt P00533, DUP767-769, cells depend on it); experiment: Proliferation experiment of Ba/F3 cell line, EGFR-V769_D770insASV (CellTiter-Glo); details: cultured for 72 hrs with compound, CTG analysis, read-out: Ba/F3 EGFR-V769_D770insASV IC50
Method in brief: as §1

Chain of Ba/F3 EGFR-V769_D770insASV (P00533 with tags, fused parts or gaps DUP767-769): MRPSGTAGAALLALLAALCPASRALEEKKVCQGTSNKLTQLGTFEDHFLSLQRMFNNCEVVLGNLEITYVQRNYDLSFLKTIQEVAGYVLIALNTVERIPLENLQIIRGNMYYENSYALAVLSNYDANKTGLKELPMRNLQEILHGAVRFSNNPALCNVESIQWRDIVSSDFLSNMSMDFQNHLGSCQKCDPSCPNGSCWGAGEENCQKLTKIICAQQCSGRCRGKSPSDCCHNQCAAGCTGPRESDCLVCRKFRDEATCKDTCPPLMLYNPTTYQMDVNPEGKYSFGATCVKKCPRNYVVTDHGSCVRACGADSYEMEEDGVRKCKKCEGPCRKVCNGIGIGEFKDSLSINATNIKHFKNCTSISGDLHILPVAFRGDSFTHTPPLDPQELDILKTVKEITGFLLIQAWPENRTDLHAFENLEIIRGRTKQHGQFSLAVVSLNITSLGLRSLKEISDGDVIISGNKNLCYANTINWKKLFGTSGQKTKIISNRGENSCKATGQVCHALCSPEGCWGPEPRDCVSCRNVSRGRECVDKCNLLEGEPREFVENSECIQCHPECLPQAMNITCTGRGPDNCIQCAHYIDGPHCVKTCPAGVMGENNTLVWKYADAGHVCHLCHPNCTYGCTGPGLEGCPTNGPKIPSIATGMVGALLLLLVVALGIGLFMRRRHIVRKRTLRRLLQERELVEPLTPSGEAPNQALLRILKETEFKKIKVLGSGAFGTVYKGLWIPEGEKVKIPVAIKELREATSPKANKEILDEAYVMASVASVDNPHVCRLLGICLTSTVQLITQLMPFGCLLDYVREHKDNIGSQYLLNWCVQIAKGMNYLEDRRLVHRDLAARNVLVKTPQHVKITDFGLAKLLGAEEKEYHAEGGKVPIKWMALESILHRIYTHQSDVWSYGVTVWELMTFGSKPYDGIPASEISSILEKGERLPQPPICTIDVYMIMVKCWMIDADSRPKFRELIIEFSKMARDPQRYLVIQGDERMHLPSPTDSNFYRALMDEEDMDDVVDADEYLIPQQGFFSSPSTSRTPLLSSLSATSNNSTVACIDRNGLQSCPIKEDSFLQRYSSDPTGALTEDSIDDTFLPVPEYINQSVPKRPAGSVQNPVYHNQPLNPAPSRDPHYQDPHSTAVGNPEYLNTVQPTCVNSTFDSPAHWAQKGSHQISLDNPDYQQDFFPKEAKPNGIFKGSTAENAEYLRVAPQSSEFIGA
Chain of Ba/F3 EGFR-D770-N771ins_SVD (P00533 with tags, fused parts or gaps DUP768-770): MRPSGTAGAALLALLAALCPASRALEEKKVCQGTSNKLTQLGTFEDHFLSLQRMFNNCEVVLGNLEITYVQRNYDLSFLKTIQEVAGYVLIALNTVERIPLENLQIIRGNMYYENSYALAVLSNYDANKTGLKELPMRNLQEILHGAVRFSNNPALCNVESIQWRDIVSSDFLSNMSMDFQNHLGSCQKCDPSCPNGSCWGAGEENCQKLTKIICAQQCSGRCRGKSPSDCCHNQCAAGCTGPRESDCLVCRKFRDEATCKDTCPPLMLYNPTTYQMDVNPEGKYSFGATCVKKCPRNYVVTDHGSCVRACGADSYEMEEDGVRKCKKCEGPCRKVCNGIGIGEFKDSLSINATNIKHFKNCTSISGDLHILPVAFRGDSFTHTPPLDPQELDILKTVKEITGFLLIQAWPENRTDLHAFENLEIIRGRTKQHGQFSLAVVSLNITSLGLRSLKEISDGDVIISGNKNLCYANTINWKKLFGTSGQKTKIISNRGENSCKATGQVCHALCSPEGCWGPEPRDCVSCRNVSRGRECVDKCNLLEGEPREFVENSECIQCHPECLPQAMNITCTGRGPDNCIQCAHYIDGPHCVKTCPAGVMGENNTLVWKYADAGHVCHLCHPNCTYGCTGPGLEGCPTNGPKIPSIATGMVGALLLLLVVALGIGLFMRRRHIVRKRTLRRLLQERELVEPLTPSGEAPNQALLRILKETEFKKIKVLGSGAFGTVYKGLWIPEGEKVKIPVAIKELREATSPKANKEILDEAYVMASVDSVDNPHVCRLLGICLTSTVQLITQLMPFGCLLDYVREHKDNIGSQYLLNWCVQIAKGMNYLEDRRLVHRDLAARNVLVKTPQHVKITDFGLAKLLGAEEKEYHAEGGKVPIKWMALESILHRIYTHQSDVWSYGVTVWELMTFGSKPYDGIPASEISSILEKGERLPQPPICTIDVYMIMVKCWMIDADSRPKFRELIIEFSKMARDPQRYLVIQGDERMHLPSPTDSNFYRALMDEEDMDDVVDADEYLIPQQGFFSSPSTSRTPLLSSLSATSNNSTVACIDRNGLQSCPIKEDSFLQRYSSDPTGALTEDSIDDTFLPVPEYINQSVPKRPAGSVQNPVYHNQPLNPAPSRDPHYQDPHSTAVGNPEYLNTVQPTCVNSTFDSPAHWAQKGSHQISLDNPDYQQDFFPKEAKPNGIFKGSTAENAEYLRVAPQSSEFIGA

Compound | GI50 [1] | IC50 [2] | GI50 [3]
C=CC(=O)Nc1cc2c(Nc3ccnc(-c4ccccc4F)c3)ncnc2cc1N1CCC(N2CCN(C)CC2)CC1 [Example 99, N-(4-((2-(2-fluorophenyl)pyridin-4-yl)amino)-7-(4-(4-methylpiperazin-1-yl)piperidin-1-yl)quinazolin-6-yl)acrylamide] | 2.8 nM | 315 nM | 6.1 nM
C=CC(=O)Nc1cc2c(Nc3cccc(-c4ccc(F)cc4F)c3)ncnc2cc1OCCCN1CCC(F)(F)C1 [Example 15, N-(4-((2′,4′-difluoro-[1,1′-biphenyl]-3-yl)amino)-7-(3-(3,3-difluoropyrrolidin-1-yl)propoxy)quinazolin-6-yl)acrylamide] | 56.1 nM | 498 nM | 137 nM
C=CC(=O)Nc1cc2c(Nc3ccnc(-c4ccccc4F)c3)ncnc2cc1O[C@@H]1CCN(CCO)C1 [Example 112, (R)—N-(4-((2-(2-fluorophenyl)pyridin-4-yl)amino)-7-((1-(2-hydroxyethyl)pyrrolidin-3-yl)oxy)quinazolin-6-yl)acrylamide] | 1.4 nM | 89.3 nM | 3.6 nM
C=CC(=O)Nc1cc2c(Nc3ccnc(-c4ccccc4F)c3)ncnc2cc1O[C@@H]1CCN(CC)C1 [Example 124, (R)-N-(7-((1-ethylpyrrolidin-3-yl)oxy)-4-((2-(2-fluorophenyl)pyridin-4-yl)amino)quinazolin-6-yl)acrylamide] | 2.9 nM | 104 nM | 9.1 nM
C=CC(=O)Nc1cc2c(Nc3cncc(-c4ccccc4F)c3)ncnc2cc1OCCN1CCOCC1 [Example 57, N-(4-((5-(2-fluorophenyl)pyridin-3-yl)amino)-7-(2-morpholinoethoxy)quinazolin-6-yl)acrylamide] | 10.8 nM | 1070 nM | 28.7 nM
C=CC(=O)Nc1cc2c(Nc3ccnc(-c4ccccc4F)c3)ncnc2cc1O[C@@H]1CCN(C2COC2)C1 [Example 114, (R)—N-(4-((2-(2-fluorophenyl)pyridin-4-yl)amino)-7-((1-(oxetan-3-yl)pyrrolidin-3-yl)oxy)quinazolin-6-yl)acrylamide] | 1.1 nM | 26.3 nM | 3.3 nM
C=CC(=O)Nc1cc2c(Nc3ccnc(-c4ccccc4F)c3)ncnc2cc1F [Example 92, N-(7-fluoro-4-((2-(2-fluorophenyl)pyridin-4-yl)amino)quinazolin-6-yl)acrylamide] | 30.5 nM | 355 nM | 16.7 nM
C=C(F)C(=O)Nc1cc2c(Nc3ccnc(-c4ccccc4F)c3)ncnc2cc1N1CCC(N2CCN(C)CC2)CC1 [Example 103, 2-fluoro-N-(4-((2-(2-fluorophenyl)pyridin-4-yl)amino)-7-(4-(4-methylpiperazin-1-yl)piperidin-1-yl)quinazolin-6-yl)acrylamide] | 30 nM | 15 nM | 6.1 nM
C=CC(=O)Nc1cc2c(Nc3ccnc(-c4ccc(F)cc4F)c3)ncnc2cc1O[C@@H]1CCN(C)C1 [Example 81, (R)-N-(4-((2-(2,4-difluorophenyl)pyridin-4-yl)amino)-7-((1-methylpyrrolidin-3-yl)oxy)quinazolin-6-yl)acrylamide] | 3.1 nM | 122 nM | 5.2 nM
C=CC(=O)Nc1cc2c(Nc3ccnc(-c4ccccc4F)c3)ncnc2cc1O[C@@H]1CCN(C2CC2)C1 [Example 113, (R)—N-(7-((1-cyclopropylpyrrolidin-3-yl)oxy)-4-((2-(2-fluorophenyl)pyridin-4-yl)amino)quinazolin-6-yl)acrylamide] | 3.9 nM | 173 nM | 11.6 nM
C=CC(=O)Nc1cc2c(Nc3ccnc(-c4ccccc4F)c3)ncnc2cc1O[C@@H]1CCN(CCOC)C1 [Example 111, (R)—N-(4-((2-(2-fluorophenyl)pyridin-4-yl)amino)-7-((1-(2-methoxyethyl)pyrrolidin-3-yl)oxy)quinazolin-6-yl)acrylamide] | 1.8 nM | 84.6 nM | 3.4 nM
C=C(F)C(=O)Nc1cc2c(Nc3ccnc(-c4ccccc4F)c3)ncnc2cc1N1CCC(N2CCOCC2)CC1 [Example 102, 2-fluoro-N-(4-((2-(2-fluorophenyl)pyridin-4-yl)amino)-7-(4-morpholinopiperidin-1-yl)quinazolin-6-yl)acrylamide] | 6.1 nM | 733 nM | 17 nM
C=CC(=O)Nc1cc2c(Nc3ccnc(-c4ccccc4F)c3)ncnc2cc1O[C@@H]1CCN(C2CCN(C)CC2)C1 [Example 116, (R)-N-(4-((2-(2-fluorophenyl)pyridin-4-yl)amino)-7-((1-(1-methylpiperidin-4-yl)pyrrolidin-3-yl)oxy)quinazolin-6-yl)acrylamide] | 3 nM | 142 nM | 3.4 nM
C=CC(=O)Nc1cc2c(Nc3ccnc(-c4ccccc4F)c3)ncnc2cc1O[C@@H]1CCN(C)C1 [Example 65, (R)—N-(4-((2-(2-fluorophenyl)pyridin-4-yl)amino)-7-((1-methylpyrrolidin-3-yl)oxy)quinazolin-6-yl)acrylamide] | 4.1 nM | 289 nM | 7.9 nM

The remaining lines, values ahead:

GI50 [1] | IC50 [2] | GI50 [3] | Compound
15.2 nM | 204 nM | 44.3 nM | C=CC(=O)Nc1cc2c(Nc3cccc(-c4c(F)cccc4F)c3)ncnc2cc1OCCCN1CCOCC1 [Example 27, N-(4-((2′,6′-difluoro-[1,1′-biphenyl]-3-yl)amino)-7-(3-morpholinopropoxy)quinazolin-6-yl)acrylamide]
68.2 nM | 225 nM | 111 nM | C=CC(=O)Nc1cc2c(Nc3cccc(-c4c(F)cccc4F)c3)ncnc2cc1OCCCN1CCN(CC(F)(F)F)CC1 [Example 31, N-(4-((2′,6′-difluoro-[1,1′-biphenyl]-3-yl)amino)-7-(3-(4-(2,2,2-trifluoroethyl)piperazin-1-yl)propoxy)quinazolin-6-yl)acrylamide]
3.4 nM | 38.1 nM | 5 nM | C=CC(=O)Nc1cc2c(Nc3ccnc(-c4ccccc4F)c3)ncnc2cc1OCCCN1CCOCC1 [Example 69, N-(4-((2-(2-fluorophenyl)pyridin-4-yl)amino)-7-(3-morpholinopropoxy)quinazolin-6-yl)acrylamide]
11.4 nM | 357 nM | 22.6 nM | C=CC(=O)Nc1cc2c(Nc3cccc(-n4nccn4)c3)ncnc2cc1OCCCN1CCN(C)CC1 [Example 56, N-(4-((3-(2H-1,2,3-triazol-2-yl)phenyl)amino)-7-(3-(4-methylpiperazin-1-yl)propoxy)quinazolin-6-yl)acrylamide]
23.3 nM | 48 nM | 37.9 nM | C=CC(=O)Nc1cc2c(Nc3ccc(F)c(-c4ccccn4)c3)ncnc2cc1OCCCN1CCN(C)CC1 [Example 50, N-(4-((4-fluoro-3-(pyridin-2-yl)phenyl)amino)-7-(3-(4-methylpiperazin-1-yl)propoxy)quinazolin-6-yl)acrylamide]
13 nM | 223 nM | 20.3 nM | C=CC(=O)Nc1cc2c(Nc3cccc(-c4c(F)cccc4F)c3)ncnc2cc1OCCCN1CCN(C)CC1 [Example 5, N-(4-((2′,6′-difluoro-[1,1′-biphenyl]-3-yl)amino)-7-(3-(4-methylpiperazin-1-yl)propoxy)quinazolin-6-yl)acrylamide]
3.5 nM | 136 nM | 4.4 nM | C=CC(=O)Nc1cc2c(Nc3ccnc(-c4c(F)cccc4F)c3)ncnc2cc1OCCCN1CCN(C)CC1 [Example 74, N-(4-((2-(2,6-difluorophenyl)pyridin-4-yl)amino)-7-(3-(4-methylpiperazin-1-yl)propoxy)quinazolin-6-yl)acrylamide]
25.3 nM | 68.1 nM | 54.1 nM | C=CC(=O)Nc1cc2c(Nc3cccc(-c4c(F)cccc4F)c3)ncnc2cc1OCCCN1CCN(C2COC2)CC1 [Example 30, N-(4-((2′,6′-difluoro-[1,1′-biphenyl]-3-yl)amino)-7-(3-(4-(oxetan-3-yl)piperazin-1-yl)propoxy)quinazolin-6-yl)acrylamide]
36.5 nM | 252 nM | 53.9 nM | C=CC(=O)Nc1cc2c(Nc3cc(-c4ccc(F)cc4F)ccc3F)ncnc2cc1OCCCN1CCN(C)CC1 [Example 20, N-(7-(3-(4-methylpiperazin-1-yl)propoxy)-4-((2′,4,4′-trifluoro-[1,1′-biphenyl]-3-yl)amino)quinazolin-6-yl)acrylamide]
23.6 nM | 431 nM | 31.5 nM | C=CC(=O)Nc1cc2c(Nc3ccc(F)c(-c4ccccc4F)c3)ncnc2cc1OCCCN1CCOCC1 [Example 38, N-(4-((2′,6-difluoro-[1,1′-biphenyl]-3-yl)amino)-7-(3-morpholinopropoxy)quinazolin-6-yl)acrylamide]
